Experiment [1] relates to NCI-H69. Put plainly: In vitro cytotoxicity against multi-drug resistant human small cell lung carcinoma H69/LX4. Type of experiment: functional, cell-based.
Experiment [2] can be described thus: Ratio of IC50 values against H69/P and […] cell lines. Type of experiment: functional.
Experiment [3] relates to NCI-H69. Put plainly: In vitro cytotoxicity against human small cell lung carcinoma H69/P. The experiment is classed as functional, cell-based.

One may read the IC50 as the concentration needed to halve the response being measured. Low values mean greater potency in that assay, high ones weaker potency in that assay. `CC/N=C(\S)Oc1ccc2c(c1)cc(C(=O)NCCN(C)C)c1nc3ccccc3nc12`: the figures for the IC50 in experiment [1] and in experiment [3] were 583 nM and 519 nM, respectively. In addition, the Ratio in experiment [2] is given as 1.12.
On the same counts, the results for `CN(C)CCNC(=O)c1cccc2ncc(-c3ccc([N+](=O)[O-])cc3)nc12` are 3380 nM, 2400 nM and 1.41.
On the same counts, the results for `C#CCOc1ccc2c(c1)cc(C(=O)NCCN(C)C)c1nc3ccccc3nc12` are 613 nM, 435 nM and 1.4.
Taken in the same sequence, the figures for `CN(C)CCNC(=O)c1cc2ccccc2c2nc3ccccc3nc12` were 511 nM, 406 nM and 1.26.
Turning to `CN(C)CCNC(=O)c1cccc2nc(-c3ccccc3)c(-c3ccccc3)nc12`, the IC50 in experiment [1] and in experiment [3] was above 100000 nM in each case.
Regarding `CN(C)CCNC(=O)c1cccc2ncc(-c3ccccc3)nc12`, the results for the IC50 in experiment [1] and in experiment [3] were 3590 nM and 3930 nM, respectively. Moreover, in experiment [2], the Ratio is reported as 0.9.
Turning to `Cc1cccc2nc3c(nc12)c(C(=O)NCCN(C)C)cc1ccccc13`, the IC50 in experiment [1] is 320 nM; in experiment [3], 417 nM. In addition, in experiment [2], the Ratio amounted to 0.8.
Taken in the same sequence, the figures for `CN(C)CCNC(=O)c1cccc2nc3c(nc12)-c1cccc2cccc-3c12` were 330 nM, 350 nM and 0.93.
Turning to `CN(C)CCNC(=O)c1cc2cc(OC(=O)Nc3ccccc3)ccc2c2nc3ccccc3nc12`, the figures for the IC50 in experiment [1] and in experiment [3] were 252 nM and 104 nM, respectively. Further, in experiment [2], the Ratio is 2.42.
Taken in the same sequence, the figures for `CN(C)CCNC(=O)c1cc2cc(OCCCO)ccc2c2nc3ccccc3nc12` were 2030 nM, 523 nM and 3.87.
On the same counts, the results for `COc1ccc2c(c1)cc(C(=O)NCCN(C)C)c1nc3ccccc3nc12` are 358 nM, 282 nM and 1.3.
On the same counts, the results for `CN(C)CCNC(=O)c1cc2cc(OCc3ccccc3)ccc2c2nc3ccccc3nc12` are 1580 nM, 1220 nM and 1.29.
With `COCCOc1ccc2c(c1)cc(C(=O)NCCN(C)C)c1nc3ccccc3nc12`, the figures for the concentration for half-maximal inhibition (IC50) in experiment [1] and in experiment [3] were 545 nM and 445 nM, respectively. Besides, the Ratio in experiment [2] is listed as 1.23.
With `CN(C)CCNC(=O)c1cc2cccc([N+](=O)[O-])c2c2nc3ccccc3nc12`, the figures for the half-maximal inhibitory concentration (IC50) in experiment [1] and in experiment [3] were 584 nM and 458 nM, respectively. Moreover, the Ratio in experiment [2] worked out at 1.3.
On the same counts, the results for `CN(C)CCNC(=O)c1cc2cccc(N)c2c2nc3ccccc3nc12` are 345 nM, 259 nM and 1.33.
On to `CN(C)CCNC(=O)c1cc2cc(OCCN3CCOCC3)ccc2c2nc3ccccc3nc12`, for which the IC50 came to 592 nM in experiment [1] and 506 nM in experiment [3]. Besides, in experiment [2], the Ratio turned out to be 1.17.
Taken in the same sequence, the figures for `CN(C)CCNC(=O)c1cc2cc(O)ccc2c2nc3ccccc3nc12` were 198 nM, 94 nM and 2.12.
Regarding `COc1cccc2c1ccc1nc3cccc(C(=O)N[C@@H](C)CN(C)C)c3nc12`, the IC50 in experiment [1] and in experiment [3] was 20 nM throughout.
As to `CN(C)CCNC(=O)c1cccc2ncc(-c3ccc4ccccc4c3)nc12`, the IC50 in experiment [1] came out at 1670 nM; in experiment [3] it was 1820 nM. Moreover, in experiment [2], the Ratio is recorded as 0.92.

For the origin of these results see ChEMBL document CHEMBL1135042, “Structure-activity relationships for analogues of the phenazine-based dual topoisomerase I/II inhibitor XR11576” (Bioorg Med Chem Lett, 2002).
